# In ChEMBL document CHEMBL3044922, “N 1-{4-[(10S)-Dihydroartemisinin-10-oxyl]}phenylmethylene-N 2-(2-methylquinoline-4-yl)hydrazine derivatives as antiplasmodial falcipain-2 inhibitors” (Med Chem Res, 2012):
# Experiments:
# Falcipain 2 = molecular target: T1, Falcipain 2 (Plasmodium falciparum, UniProt Q9N6S8); assay: Inhibition of Plasmodium falciparum recombinant falcipain 2 expressed in Escherichia coli using Z-Leu-Arg-AMC as substrate incubated for 30 min prior to substrate addition measured for 30 min by fluorometric analysis
# T1 sequence (Q9N6S8 whole entry): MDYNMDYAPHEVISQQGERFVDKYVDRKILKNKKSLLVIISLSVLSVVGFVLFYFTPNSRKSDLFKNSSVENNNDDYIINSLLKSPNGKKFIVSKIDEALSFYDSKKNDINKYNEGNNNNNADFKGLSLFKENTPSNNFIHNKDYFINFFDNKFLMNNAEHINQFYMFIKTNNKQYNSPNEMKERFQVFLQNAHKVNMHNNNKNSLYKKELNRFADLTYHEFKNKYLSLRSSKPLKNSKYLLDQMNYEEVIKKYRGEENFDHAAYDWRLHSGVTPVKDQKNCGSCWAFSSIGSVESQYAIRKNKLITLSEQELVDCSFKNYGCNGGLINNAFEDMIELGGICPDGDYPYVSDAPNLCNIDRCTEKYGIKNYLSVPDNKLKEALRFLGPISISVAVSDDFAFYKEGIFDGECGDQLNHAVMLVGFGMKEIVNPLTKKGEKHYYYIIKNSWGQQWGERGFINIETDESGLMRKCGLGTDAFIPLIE
# [1] = molecular target: T2, Falcipain 2 (Plasmodium falciparum) (UniProt Q9N6S8); assay: Inhibition of Plasmodium falciparum recombinant falcipain 2 expressed in Escherichia coli using Z-Leu-Arg-AMC as substrate at 10 uM incubated for 30 min prior to substrate addition measured for 30 min by fluorometric analysis
# T2 sequence (whole entry): T1 sequence (Q9N6S8 whole entry)
SMILES,IC50 (Falcipain 2) [nM],inhibition [1] [%]
CCc1cccc2c(N/N=C/c3ccc(O[C@H]4O[C@@H]5O[C@@]6(C)CC[C@H]7[C@H](C)CC[C@@H]([C@H]4C)[C@@]57OO6)cc3)cc(C)nc12,520,85.1
Cc1cc(N/N=C/c2ccc(O[C@H]3O[C@@H]4O[C@@]5(C)CC[C@H]6[C@H](C)CC[C@@H]([C@H]3C)[C@@]46OO5)cc2)c2ccc(Cl)c(C)c2n1,210,82.6
Cc1cc(N/N=C/c2ccc(O[C@H]3O[C@@H]4O[C@@]5(C)CC[C@H]6[C@H](C)CC[C@@H]([C@H]3C)[C@@]46OO5)cc2)c2cccc(C)c2n1,2280,84.3
Cc1cc(N/N=C/c2ccc(O[C@H]3O[C@@H]4O[C@@]5(C)CC[C@H]6[C@H](C)CC[C@@H]([C@H]3C)[C@@]46OO5)cc2)c2ccccc2n1,890,94.1
Cc1ccc2nc(C)cc(N/N=C/c3ccc(O[C@H]4O[C@@H]5O[C@@]6(C)CC[C@H]7[C@H](C)CC[C@@H]([C@H]4C)[C@@]57OO6)cc3)c2c1,780,87.2
Cc1cc(N/N=C/c2ccc(O[C@H]3O[C@@H]4O[C@@]5(C)CC[C@H]6[C@H](C)CC[C@@H]([C@H]3C)[C@@]46OO5)cc2)c2cccc(F)c2n1,280,84.7
Cc1cc(N/N=C/c2ccc(O[C@H]3O[C@@H]4O[C@@]5(C)CC[C@H]6[C@H](C)CC[C@@H]([C@H]3C)[C@@]46OO5)cc2)c2ccc(Cl)cc2n1,170,88.4
Cc1cc(N/N=C/c2ccc(O[C@H]3O[C@@H]4O[C@@]5(C)CC[C@H]6[C@H](C)CC[C@@H]([C@H]3C)[C@@]46OO5)cc2)c2cc(Br)ccc2n1,260,89.8
CC(C)C[C@H](NC(=O)[C@H]1O[C@@H]1C(=O)O)C(=O)NCCCCN=C(N)N [E-64],20,92
Cc1cc(N/N=C/c2ccc(O[C@H]3O[C@@H]4O[C@@]5(C)CC[C@H]6[C@H](C)CC[C@@H]([C@H]3C)[C@@]46OO5)cc2)c2cc(Cl)ccc2n1,150,88.2
Cc1cc(N/N=C/c2ccc(O[C@H]3O[C@@H]4O[C@@]5(C)CC[C@H]6[C@H](C)CC[C@@H]([C@H]3C)[C@@]46OO5)cc2)c2c(Cl)ccc(C)c2n1,390,79.4
Cc1cc(N/N=C/c2ccc(O[C@H]3O[C@@H]4O[C@@]5(C)CC[C@H]6[C@H](C)CC[C@@H]([C@H]3C)[C@@]46OO5)cc2)c2ccc(C)c(C)c2n1,840,79.4
COc1ccc2nc(C)cc(N/N=C/c3ccc(O[C@H]4O[C@@H]5O[C@@]6(C)CC[C@H]7[C@H](C)CC[C@@H]([C@H]4C)[C@@]57OO6)cc3)c2c1,290,93.7
Cc1cc(N/N=C/c2ccc(O[C@H]3O[C@@H]4O[C@@]5(C)CC[C@H]6[C@H](C)CC[C@@H]([C@H]3C)[C@@]46OO5)cc2)c2cccc(Br)c2n1,840,94.1
Cc1cc(N/N=C/c2ccc(O[C@H]3O[C@@H]4O[C@@]5(C)CC[C@H]6[C@H](C)CC[C@@H]([C@H]3C)[C@@]46OO5)cc2)c2cc(F)ccc2n1,670,88.6
